US20240024299A1, “USE OF DRUGS THAT STIFFEN MATURE GAMETOCYTES FOR BLOCKING TRANSMISSION OF PLASMODIUM PARASITES” (INSERM (INSTITUT NATIONAL DE LA SANTÉ ET DE LA RECHERCHE …, priority 2020, published 2024)

Tests used:
[1] = test system: P. falciparum gametocytes; assay: microsphiltration (spleen-mimetic microfilters) retention / stiffening of mature gametocytes, dose-response; assay type: cell-based, Plasmodium falciparum; conditions: for IC50: Plasmodium falciparum, mature gametocytes, retention in microsphiltration, read-out: stiffening effect IC50; for activity by readout (readout 1 male and female gametocytes staining vs readout 2 specific female gametocytes staining): dose-response curves, data not shown
Excerpt: FIG. 1. Screening progression cascade. ReFrame library (12,805 compounds), Kinase Inhibitors Box (350 compounds) and Pathogen Box (400 compounds) were screened with “microsphiltration” against P. falciparum gametocytes. Hits from primary screening were further selected by dose-response analysis (DRA). Confirmed 82 hits were divided in 7 groups, based on their activity and molecular target (data not shown). Hits repartition is shown in parenthesis, along with the name of one representative hit for each group. A score was assigned to each DRA confirmed hit, based on route of administration, safety in human clinical trials, pharmacokinetic and affordability for developing countries, leading to final selection of 3 hits for further in vitro and in vivo confirmation experiments.
FIG. 2. Representative single 384-wells plate scatterplots of primary screening. Each well of a screening plate is loaded with pre-spotted compounds while two columns are left for controls. They are represented as follows: empty circles for non-selected compounds and black circles for hits (352 wells), black squares for negative control (DMSO 0.05%, 16 wells), black squares for main positive control (NITD609 0.5 μM, 8 wells), light black empty squares for retention positive control (Calyculin A 75 nM, 6 wells), black squares for killing control (Gentian Violet 50 μM, 2 wells). For each well, killing and retention values are calculated and distributed in a “xy” graph. Two graphs are made for each plate: one using male and female gametocytes imaging (“readout 1”, left panel) and one using specific female gametocytes imaging (“readout 2”, right panel). For each graph, a linear regression (solid line) is tracked with 95% confidence interval (dashed lines). The compounds beyond the upper confidence interval in both readouts are identified as hits. A) Plate number 15 of ReFRAME library: 8 hits with readout 1, 11 hits with readout 2, 4 hits (shared between the two readouts) finally identified. B) Plate number 9 of ReFRAME library: 7 hits with readout 1, 11 hits with readout 2, 5 hits finally individuated, including NITD609 (highlighted with an arrow). In few cases, compounds with only killing effect were added to hitlist.
FIG. 4. Examples of dose-response curves (DRCs) of confirmed hits. Every hit from primary screening has been re-tested in duplicate (ReFrame library) and in triplicate (Kinase Inhibitors and Pathogen Box libraries) for dose-response, starting from 5 (10 μM for ReFrame hits) to 5 nM. For each of them, a DRC for killing and retention was tracked and IC50 was calculated (one for readout 1, male and female gametocytes staining, one for readout 2, specific female gametocytes staining). Error bars denote the standard deviation. The first curve is referred to killing effect and the second curve to retention effect normalized on DMSO negative control. Chemical structure of the compound is represented for each DRC. Hits and readouts have been selected among the ones with lowest variability, with the addition of TD-6450 and L-THP due to their high priority. […] Readout 2 has been selected for all of them except APPCL. […] Readout 2 used for all of them. […] Readout 2 used for all of them except TD-6450.

[2] = test system: P. falciparum gametocytes; assay: killing of mature gametocytes in the microsphiltration screen, dose-response; assay type: cell-based; conditions: Plasmodium falciparum, read-out: killing effect IC50
Excerpt: FIG. 1. Screening progression cascade. ReFrame library (12,805 compounds), Kinase Inhibitors Box (350 compounds) and Pathogen Box (400 compounds) were screened with “microsphiltration” against P. falciparum gametocytes. Hits from primary screening were further selected by dose-response analysis (DRA). Confirmed 82 hits were divided in 7 groups, based on their activity and molecular target (data not shown). Hits repartition is shown in parenthesis, along with the name of one representative hit for each group. […]
FIG. 2. […] For each well, killing and retention values are calculated and distributed in a “xy” graph. Two graphs are made for each plate: one using male and female gametocytes imaging (“readout 1”, left panel) and one using specific female gametocytes imaging (“readout 2”, right panel). […] The compounds beyond the upper confidence interval in both readouts are identified as hits. A) Plate number 15 of ReFRAME library: 8 hits with readout 1, 11 hits with readout 2, 4 hits (shared between the two readouts) finally identified. B) Plate number 9 of ReFRAME library: 7 hits with readout 1, 11 hits with readout 2, 5 hits finally individuated, including NITD609 (highlighted with an arrow). […]
FIG. 4. […] For each of them, a DRC for killing and retention was tracked and IC50 was calculated (one for readout 1, male and female gametocytes staining, one for readout 2, specific female gametocytes staining). […]

Row | SMILES | IC50 [1] [µM] | activity by readout (readout 1 male and female gametocytes staining vs readout 2 specific female gametocytes staining) [1] | IC50 [2] [µM]
1 | COc1cc2c(cc1OC)[C@@H]1Cc3ccc(OC)c(OC)c3CN1CC2 [L-THP, (13aS)-2,3,9,10-tetramethoxy-6,8,13,13a-tetrahydro-5H-isoquinolino[2,1-b]isoquinoline] | 0.005 | – | –
2 | CC(C)(CN)c1nc(-c2ccc(Cl)c(O)c2)c(-c2ccnc(N)n2)[nH]1 [MMV030734] | – | specifically actives on readout 2 | –
3 | O=C(NCCN1CCCC1)c1cc(NCCCCN2CCC(F)(F)CC2)nc2ccc(Cl)cc12 [MMV667494] | – | specifically actives on readout 2 | –

Further lines, with some results ahead:

Row | IC50 [1] [µM] | SMILES | activity by readout (readout 1 male and female gametocytes staining vs readout 2 specific female gametocytes staining) [1] | IC50 [2] [µM]
4 | 0.05 | C[C@H]1Cc2c([nH]c3cc(Cl)c(F)cc23)[C@@]2(N1)C(=O)Nc1ccc(Cl)cc12 [NITD609, (1R,3S)-5′,7-Dichloro-6-fluoro-3-methyl-spiro[2,3,4,9-tetrahydropyrido[3,4-b]indole-1,3′-indoline]-2′-one] | – | 0.1
5 | 0.6 | CNC(=O)N1C[C@@H](C)N(c2ccc(C(=O)Nc3ccc(-c4ccc(-c5c[nH]c([C@@H]6CCCN6C(=O)[C@@H](NC(=O)OC)C(C)C)n5)cc4)c(OC(F)(F)F)c3)cn2)C[C@@H]1C [TD-6450, carbamic acid, N-[(1S)-1-[[(2S)-2-[5-[4′-[[[6-[(2R,5S)-2,5-dimethyl-4-[(methylamino)carbonyl]-1-piperazinyl]-3-pyridinyl]carbonyl]amino]-2′-(trifluoromethoxy) [1,1′-biphenyl]-4-yl]-1H-imidazol-2-yl]-1-pyrrolidinyl]carbonyl]-2-methylpropyl]-, methyl ester] | – | –
